The results in this text go back to patent US20090036448A1, “PYRIMIDINE DERIVATIVES AND METHODS OF TREATMENT RELATED TO THE USE THEREOF” (TAISHO PHARMECUTICAL CO., LTD., priority 2004, published 2009).

The assay deals with MCH receptor (Homo sapiens, UniProt Q99705). Briefly: FLIPR/FDSS6000 functional assay: intracellular Ca2+ changes evoked by MCH. The assay is classed as cell-based. The conditions noted are these: class by percent of control at 10^−7 M or by IC50; antagonist activity, 50 nM of MCH; read-out: class. The gist of the method: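 Cells expressing a constitutively active, non-endogenous MCH receptor were loaded with 4 μM Fluo-4-AM for 1 hr at 37 °C. They were then preincubated 30 min with compound before MCH addition, using 50 nM MCH for antagonist testing. [Ca2+]i transients were monitored at Ex 488/Em 530 nm for 290 s by FLIPR or FDSS.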

Counter-ions that a name gives are not always drawn.

Regarding `Cc1nc(N[C@H]2CC[C@@H](NC(=O)c3ccc(F)c(Cl)c3)CC2)cc(-n2ccnc2)n1` [Example 38, 3-Chloro-4-fluoro-N-(cis-4-{[6-(1H-imidazol-1-yl)-2-methylpyrimidin-4-yl]amino}cyclohexyl)-benzamide dihydrochloride], the IC50 is > 0.2 µM.
For the compound `CCc1nc(N[C@H]2CC[C@@H](NC(=O)c3cc(F)c(F)c(F)c3)CC2)cc(N(C)C)n1` [Example 177, N-(cis-4-{[6-(Dimethylamino)-2-ethylpyrimidin-4-yl]amino}cyclohexyl)-3,4,5-trifluorobenzamide hydrochloride], the IC50 was < 0.05 µM.
Then `Cc1nc(N[C@H]2CC[C@@H](NC(=O)c3ccc(F)c(Cl)c3)CC2)c(C)c(N(C)C)n1` [Example 180, 3-Chloro-N-(cis-4-{[6-(dimethylamino)-2,5-dimethylpyrimidin-4-yl]amino}cyclohexyl)-4-fluorobenzamide hydrochloride], with > 0.2 µM; and `Cn1ccc2c(N[C@H]3CC[C@@H](NC(=O)c4cc(F)c(F)c(F)c4)CC3)ncnc21` [Example 188, 3,4,5-Trifluoro-N-{cis-4-[(7-methyl-7H-pyrrolo[2,3-d]pyrimidin-4-yl)amino]cyclohexyl}benzamide hydrochloride], with 0.05 to 0.2 µM.
